Assay results published in patent publication US20040019027A1, “Method of treating cerebrotendinous xanthomatosis” (priority 2002, published 2004).

Tests used:
[1] = molecular target: T1, human PXR ligand binding domain (Homo sapiens, UniProt O75469); experiment: In vitro ligand displacement assay with [3H]SR12813; conditions: 37.5 nM [3H]SR12813; 5 μM hyperforin, 30 μM Triol, 30 μM Tetrol; FIG. 4
T1 sequence (O75469 107-434): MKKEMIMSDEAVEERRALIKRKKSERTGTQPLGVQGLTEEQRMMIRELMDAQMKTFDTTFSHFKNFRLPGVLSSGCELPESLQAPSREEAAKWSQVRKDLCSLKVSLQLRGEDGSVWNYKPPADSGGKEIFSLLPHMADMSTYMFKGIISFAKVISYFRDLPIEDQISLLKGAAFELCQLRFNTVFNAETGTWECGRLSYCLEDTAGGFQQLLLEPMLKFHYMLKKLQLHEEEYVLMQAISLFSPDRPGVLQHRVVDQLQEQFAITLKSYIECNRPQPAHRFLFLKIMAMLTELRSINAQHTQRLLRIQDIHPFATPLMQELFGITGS
Method: The amount of [^3H]SR12813 associated with human PXR is expressed in cpm.
To determine whether a molecule or compound interacts directly with a PXR or is a PXR ligand, an in vitro ligand displacement assay is commonly used. […] In the ligand displacement assay, the ligand binding domain of a PXR is synthesized or expressed and purified. A known PXR ligand is radio-labeled and incubated with the purified ligand binding domain of the PXR. A molecule or compound suspected to be a PXR ligand is then added into the incubated mixture. Radioactivity reading is taken using a scintillation counter. If the molecule or compound competes with the known PXR ligand for the ligand binding domain of the PXR, the molecule or compound is expected to displace some of the radio-labeled known PXR agonist and reduce the radioactivity reading. Accordingly, the reduction of radioactivity reading indicates whether the molecule or compound is a PXR ligand and the extent to which the molecule or compound competes with the known PXR ligand.
An in vitro ligand displacement assay was used to determine whether 5β-cholestane-3α, 7α, 12α-triol interacts directly with the ligand binding domain of PXR. Because radiolabeled [^3H]SR12813 are available for human PXR but not mouse PXR, human PXR was used to examine whether 5β-cholestane-3α, 7α, 12α-triol could compete for binding of human PXR to a tritiated SR12813. […]

[2] = molecular target: T2, mouse PXR (Mus musculus, UniProt O54915); experiment: GAL-mouse PXR luciferase reporter gene assay in transfected CV-1 cells; assay type: cell-based; conditions: for activation of GAL-mouse PXR (in words) / fold activation of GAL-mouse PXR: 10 μM; for activation of GAL-mouse PXR (in words): CV-1 cells, FIG. 3(a), FIG. 8(a)
T2 sequence (O54915 104-431): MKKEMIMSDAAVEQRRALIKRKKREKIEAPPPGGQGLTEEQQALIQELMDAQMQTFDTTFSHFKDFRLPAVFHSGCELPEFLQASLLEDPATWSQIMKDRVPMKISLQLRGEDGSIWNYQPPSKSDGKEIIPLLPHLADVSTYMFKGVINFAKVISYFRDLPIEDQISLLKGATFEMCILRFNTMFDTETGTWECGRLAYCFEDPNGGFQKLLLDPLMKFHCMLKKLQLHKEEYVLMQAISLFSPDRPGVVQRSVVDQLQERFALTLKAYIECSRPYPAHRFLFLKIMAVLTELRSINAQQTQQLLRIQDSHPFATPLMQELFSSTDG
Method: (§1) CV-1 cells were transiently transfected with a GAL-mouse PXR expression vector, a GAL4 reporter construct, and a β-galactosidase vector as an internal control. Where noted, the bile acid transporter NTCP was added to the transfection to promote the transport of membrane-impermeable bile acids. Transfected cells were exposed to the indicated compounds (10 μM each), and fold activation was determined using luciferase and β-galactosidase enzyme activity assays. […] The transfected CV-1 cells were treated with multiple concentrations of each sterol. Error bars in this figure and subsequent figures represent the standard error of the mean (SEM) from representative experiments.
It is questioned whether β-cholestane-3α, 7α, 12α-triol (Triol) levels were elevated in whole liver extracts from CYP27 −/− mice. To show the level of 5β-cholestane-3α, 7α, 12α-triol in mouse liver extract, wild-type or CYP27 −/−mouse liver tissue (0.5 g) was extracted with 7.5 ml of ethyl acetate/methanol (2:1, vol/vol) along with 5β-cholestane-3β,5α,6β-triol (25 μg) as an internal control for extraction efficiency. […] The extraction was repeated three times, and the organic fraction was pooled and evaporated. To remove the vast excess of cholesterol that interferes with subsequent gas chromatography-mass spectroscopy analysis, the evaporated residue was dissolved in 0.5 ml of chloroform/acetone (35:25, vol/vol) and applied to a Bond Elut SI cartridge (Varian, 500 mg). Cholesterol was removed by washing with 6 ml of chloroform/acetone (35:25, vol/vol), and sterols were eluted with 7 ml of chloroform/acetone/methanol (35:25:20, vol/vol/vol). The sterol fraction was evaporated and dissolved in acetonitrile, and a portion was silylated with N,O-bis(trimethylsilyl)-trifluoroacetamide containing 1% trimethylchlorosilane (Pierce). The silylated material was analyzed by using a Shimadzu model GC-17A gas chromatograph with a QP5000 mass spectral detector and a Hewlett-Packard Ultra 2 (cross-linked-siloxane) column. The injector port was kept at 250° C., interface temperature was kept at 280° C., and oven temperature was kept at 50° C. followed by a gradient of 30° C. min^−1 up to 300° C. The electron impact ionization source was at 70 eV. 5β-cholestane-3α, 7α, 12α-triol levels were determined by comparison to a standard curve. For transfection studies, the sterol fraction was dissolved in DMSO and added to the cell-culture media. containing DMEM with 10% delipidated FBS.

[3] = tested on: CYP3A; conditions: cited from earlier work
[4] = tested on: mice; experiment: Tribromoethanol-induced sleep test; assay type: in vivo, mouse; conditions: i.p. 0.35 mg/g
Excerpt: Wild type and cyp27-null mice received an i.p. injection of tribromoethanol, and their individual sleep times are plotted. Wild type mice are represented by squares and CYP27-null mice (CYP27 −/−) are represented by circles. Wild type male, n=6; cyp27-1-male, n=5; Wild type female, n=6; cyp27-1-female, n=6. **, P<0.01; ***, P<0.001.
Because PXR is a master regulator of small-molecule clearance, continuous activation of PXR in CYP27-null mice should produce a physiologic state of enhanced resistance to endogenous and exogenous toxins. To test this in a physiological setting, mice received an i.p. injection of the anesthetic agent tribromoethanol (0.35 mg/g of body weight). Drug-induced anesthesia was measured until the animals had regained sufficient consciousness to fully right themselves. […] Thus, the tribromoethanol-induced sleep test provides a direct and quantitative measure of hepatic PXR activity in live animals. […] In female mice, the difference was even more significant: 35.8±1.6 min for CYP27-null mice compared with 49.6±2.0 min for WT (P<0.001). […] When 5β-cholestane-3α, 7α, 12α-triol itself is accumulating to pathological levels, the ability of this sterol to activate cyp3a11 (FIG. 5) becomes highly significant as CYP3A establishes an alternate or salvage pathway for the elimination of excess 5β-cholestane-3α, 7α, 12α-triol (FIG. 1). […]

[5] = tested on: CYP3A4; conditions: reported by Furster & Wikvall 1999; read-out: Michaelis constant (Km) as a CYP3A4 substrate; cited from earlier work
[6] = molecular target: T3, full-length mouse PXR (Mus musculus, UniProt O54915); experiment: Full-length mouse PXR reporter assay with rat cyp3a regulatory element in CV-1 cells; assay type: cell-based; conditions: 10 μM, FIG. 3(b)
T3 sequence (O54915 1-431): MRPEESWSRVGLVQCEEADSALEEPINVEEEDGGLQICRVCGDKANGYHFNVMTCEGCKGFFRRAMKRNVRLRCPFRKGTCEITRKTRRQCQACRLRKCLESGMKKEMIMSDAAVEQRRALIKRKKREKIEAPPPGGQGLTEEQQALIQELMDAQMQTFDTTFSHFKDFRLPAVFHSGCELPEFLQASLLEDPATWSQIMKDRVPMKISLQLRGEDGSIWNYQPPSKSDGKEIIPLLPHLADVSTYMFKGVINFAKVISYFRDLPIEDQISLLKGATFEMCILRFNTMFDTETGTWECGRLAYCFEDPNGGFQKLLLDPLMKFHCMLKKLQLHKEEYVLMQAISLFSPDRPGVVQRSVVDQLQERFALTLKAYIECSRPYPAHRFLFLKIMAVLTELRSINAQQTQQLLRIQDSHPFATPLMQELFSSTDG
Method: as §1, with “assays. PCN refers to pregnenolone-16α-carbonitrile which is an effective agonist to mouse PXR.” for “assays.”, “experiments. In some cases, the error bars are not visible because they are negligible relative to the scale of the figure” for “experiments.”
To further confirm that 5β-cholestane-3α, 7α, 12α-triol and 5β-cholestan-3α, 7α, 12α, 25-tetrol activate mouse PXR, the effect of these compounds on full-length mouse PXR was examined using a reporter construct containing a regulatory element from the rat cyp3a gene that binds to the DNA binding domain of mouse PXR. Blumberg et al., SXR, a novel steroid and xenobioticsensing nuclear receptor, Gene & Dev. 12: 3195-3205 (1998).

## CC(CCC[C@@H](C)[C@H]1CC[C@H]2[C@@H]3[C@H](O)C[C@@H]4C[C@H](O)CC[C@]4(C)[C@H]3C[C@H](O)[C@]12C)C(=O)O (stereo partly drawn) [5β-cholestanoic acid-3α,7α,12α-triol]
[1]
  displacement of [3H]SR12813 from human PXR (in words): failed to displace
[2]
  activation of GAL-mouse PXR (in words): failed to activate mouse PXR

## COc1cc2c(cc1O)CCN[C@]21CS[C@@H]2c3c(OC(C)=O)c(C)c4c(c3[C@H](COC1=O)N1[C@@H]2[C@H]2c3c(cc(C)c(OC)c3O)C[C@@H]([C@@H]1O)N2C)OCO4 [ET-743, Ecteinascidin-743]
[3]
  inhibition of the induction of CYP3A by SR12813 (in words): completely inhibits

## C[C@H](CCC(=O)O)[C@H]1CC[C@H]2[C@@H]3[C@H](O)C[C@@H]4C[C@H](O)CC[C@]4(C)[C@H]3CC[C@]12C [chenodeoxycholic acid]
[2]
  activation of GAL-mouse PXR (in words): failed to activate mouse PXR

## CC(C)CCC[C@@H](C)[C@H]1CC[C@H]2[C@@H]3C[C@@H](O)[C@@]4(O)C[C@@H](O)CC[C@]4(C)[C@H]3CC[C@]12C [5β-cholestane-3β,5α,6β-triol]
[2]
  activation of GAL-mouse PXR (in words): does not activate mouse PXR

## C[C@H](CCCC(C)(C)O)[C@H]1CC[C@H]2[C@@H]3[C@H](O)C[C@@H]4C[C@H](O)CC[C@]4(C)[C@H]3C[C@H](O)[C@]12C [5β-cholestane-3α, 7α, 12α, 25-tetrol]
[2]
  fold activation of GAL-mouse PXR: 16 fold

## OCC(Br)(Br)Br [tribromoethanol]
[4]; female CYP27-null mice
  time to awakening after tribromoethanol (mean±SEM): 35.8 ± 1.6 min
[4]; female WT mice
  time to awakening after tribromoethanol (mean±SEM): 49.6 ± 2.0 min
[4]; male CYP27-null mice
  time to awakening after tribromoethanol (mean±SEM): 30.6 ± 2.9 min
[4]; male WT mice
  time to awakening after tribromoethanol (mean±SEM): 42.2 ± 1.9 min

## CC(C)CCC[C@@H](C)[C@H]1CC[C@H]2[C@@H]3[C@H](O)C[C@@H]4C[C@H](O)CC[C@]4(C)[C@H]3C[C@H](O)[C@]12C [5β-cholestane-3α, 7α, 12α-triol]
[2]
  EC50: ≥ 3 µM
  fold activation of GAL-mouse PXR: 31 fold
[5]
  Km: 6 µM
[6]
  activation of full-length mouse PXR (in words): activated full-length mouse PXR
